Experimental findings from patent US10028961B2, “Therapeutically active compounds and their methods of use” (AGIOS PHARMACEUTICALS, INC., priority 2013, dated 2018) are described below.

One test addresses IDH1 R132C (Homo sapiens (Human), UniProt O75874, R132C). The test is described as follows: In vitro assay IDH1 R132C homodimer, NADPH depletion assay. The class given is biochemical. As for the experimental part: (§1) The following describes the experimental procedures that can be used to obtain data on columns 3 and 6 of Table 4.
(§2) A test compound is prepared as 10 mM stock in DMSO and diluted to 50× final concentration in DMSO, for a 50 μl reaction mixture. IDH enzyme activity converting alpha-ketoglutarate to 2-hydroxyglutaric acid is measured using a NADPH depletion assay. In the assay the remaining cofactor is measured at the end of the reaction with the addition of a catalytic excess of diaphorase and resazurin, to generate a fluorescent signal in proportion to the amount of NADPH remaining. […] The reaction is started with the addition of 10 μl of Substrate Mix ([…], 5 mM alpha-ketoglutarate, in Assay Buffer) and the mixture is incubated for 90 minutes at room temperature.
The concentration of NADPH and alpha-ketoglutarate in the Substrate Buffer is 20 μM and 1 mM, respectively.

For another test, the target named is IDH2 R140Q (Homo sapiens (Human), UniProt P48735, R140Q). The test is described as follows: In vitro assay for IDH2m R140Q inhibitors, cofactor depletion assay. The class given is biochemical. To be noted: IDH2 R140Q enzyme. A digest of the protocol: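 Remaining cofactor measured fluorimetrically: diaphorase/resazurin Stop Mix […], halting the reaction. Before that, mutant enzyme and compound sat 1 h at RT, then substrate mix (4 μM NADPH, 1.6 mM α-KG) was added for 16 h at RT.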

For test [1], the target named is IDH1-R132 homodimer enzyme (R132H) (Homo sapiens (Human), UniProt O75874, R132H). The test is described as follows: In vitro assay IDH1-R132H homodimer, NADPH depletion assay. In kind it is biochemical. As for the experimental part: as §1, §2
Test [2] concerns the target IDH1 wt/IDH1 R132H heterodimer (Homo sapiens (Human), UniProt O75874, R132H). The test is described as follows: In vitro assay for IDH1m R132H inhibitors, IDH1 wt/IDH1 R132H heterodimer, NADPH depletion (diaphorase/resazurin). The class given is biochemical. Conditions: IDH1 wt/R132H heterodimer, NADPH/NADP, not saturated; read-out: IDH1 wt/R132H NADPH/NADP IC50 not saturated. A digest of the protocol: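 Read-out is NADPH left after α-KG reduction to 2-HG, measured via resorufin fluorescence after 5 min diaphorase/resazurin step at 25° C. Enzyme is sf9-expressed IDH1wt-his/IDH1R132H-flag heterodimer, pre-incubated 1 hr at room temperature with compound and cofactor. IC50s from DMSO stocks diluted 1:50.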
In general terms: Alamar Blue is a resazurin reagent that responds to reducing activity.

The target of test [3] is IDH1-R132H homodimer enzyme (Homo sapiens (Human), UniProt O75874, R132H). The test is described as follows: In vitro assay IDH1-R132H homodimer, NADPH depletion assay with NADPH/NADP preincubation. The class given is biochemical. To be noted: 5 μM NADPH and 37.5 μM NADP. A digest of the protocol:
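Compounds were added from DMSO at 50× final concentration, and the mutant enzyme was incubated 60 min at room temperature after starting with a substrate mix holding NADPH and 5 mM alpha-ketoglutarate. Residual cofactor, read by fluorescence after excess diaphorase and resazurin, reflects enzyme turnover.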

In test [4] the test system is U87MG pLVX-IDH2 R140Q-neo cells. The test is described as follows: U87MG pLVX-IDH2 R140Q-neo cell based assay, 2-HG by LC-MS. Conditions: Homo sapiens, U-87 MG.

pIC50: −log10 of the molar value.

Sequence of IDH2 R140Q (P48735 40-452 R140Q): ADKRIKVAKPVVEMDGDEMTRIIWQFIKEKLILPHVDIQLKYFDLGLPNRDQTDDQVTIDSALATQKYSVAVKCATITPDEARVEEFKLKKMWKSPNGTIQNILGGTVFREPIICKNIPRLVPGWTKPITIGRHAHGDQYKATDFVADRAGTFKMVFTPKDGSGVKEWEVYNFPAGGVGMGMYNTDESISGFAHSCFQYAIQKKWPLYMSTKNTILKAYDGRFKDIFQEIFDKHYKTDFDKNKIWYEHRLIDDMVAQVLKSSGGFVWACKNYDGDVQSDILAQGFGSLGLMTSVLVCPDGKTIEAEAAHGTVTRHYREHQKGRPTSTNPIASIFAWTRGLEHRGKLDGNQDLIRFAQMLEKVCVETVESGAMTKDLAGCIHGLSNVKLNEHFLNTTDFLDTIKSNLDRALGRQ
Sequence of IDH1-R132 homodimer enzyme (R132H) (O75874 whole entry R132H): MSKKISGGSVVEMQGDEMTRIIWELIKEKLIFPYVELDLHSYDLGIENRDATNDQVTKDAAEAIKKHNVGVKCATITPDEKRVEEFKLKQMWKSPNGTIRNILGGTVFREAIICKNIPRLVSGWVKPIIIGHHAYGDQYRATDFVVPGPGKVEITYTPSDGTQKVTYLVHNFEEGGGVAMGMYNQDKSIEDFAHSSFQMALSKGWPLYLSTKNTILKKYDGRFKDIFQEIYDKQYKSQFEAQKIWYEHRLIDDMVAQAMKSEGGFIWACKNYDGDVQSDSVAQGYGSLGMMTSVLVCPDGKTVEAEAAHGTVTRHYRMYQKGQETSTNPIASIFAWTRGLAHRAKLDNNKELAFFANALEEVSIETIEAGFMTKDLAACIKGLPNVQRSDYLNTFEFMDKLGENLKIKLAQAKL
Sequence of IDH1 wt/IDH1 R132H heterodimer (O75874 whole entry R132H): as above
Sequence of IDH1 wt/IDH1 R132H heterodimer (O75874 whole entry, stated change not applied): as the sequence (O75874 whole entry R132H) above, with H132R counted along it
Sequence of IDH1 R132C (O75874 whole entry R132C): as the sequence (O75874 whole entry R132H) above, with H132C counted along it
Sequence of IDH1-R132H homodimer enzyme (O75874 whole entry R132H): as the sequence (O75874 whole entry R132H) above

On to `CC(O)CNc1nc(NCC(C)O)nc(-c2cccc(C(F)(F)F)n2)n1` (centres unmarked) [Compound 14], for which the pIC50 (against IDH1 R132C; at IDH2 R140Q; in test [1]) was < 6.00 each time.
In the case of `C[C@@H](Nc1nc(NC2(c3ccccc3)CC2)nc(-c2cccc(C(F)(F)F)n2)n1)C1CC1` [Compound 30], the pIC50 against IDH1 R132C was 6.00 to 7.00; on IDH2 R140Q, 7.00 to 7.30; in test [1], 7.00 to 7.30.
For `C[C@@H](Nc1nc(NC2CCC(F)(F)CC2)nc(-c2cccc(C(F)(F)F)n2)n1)C1CC1` [Compound 50], the figures for the pIC50 (in test [2]; on IDH1 R132C; in test [1]) were > 7.30, 7.00 to 7.30 and > 7.30, respectively.
Regarding `CC(Nc1nc(N[C@H](C)C2CC2)nc(-c2cccc(C(F)(F)F)n2)n1)c1ccccc1` (single isomer, unassigned) [Compound 20], the pIC50 in test [2] is > 7.30; on IDH1 R132C it was 7.00 to 7.30; against IDH2 R140Q it was > 7.30; in test [1] it was 7.00 to 7.30.
Consider `FC(F)(F)c1cccc(-c2nc(NCC3CCC3)nc(NCC3CCC3)n2)n1` [Compound 7], for which the results for the pIC50 (against IDH1 R132C; at IDH2 R140Q; in test [1]) were < 6.00, > 7.30 and 6.00 to 7.00, respectively.
The corresponding values for `C[C@@H](Nc1nc(NCc2ccccc2)nc(-c2cccc(C(F)(F)F)n2)n1)C1CC1` [Compound 21] are < 6.00, > 7.30 and < 6.00.
Regarding `C[C@@H](Nc1nc(N[C@H](C)C2CC2)nc(-c2cccc(CO)c2)n1)C1CC1` [Compound 16], the pIC50 was < 6.00 on IDH1 R132C, > 7.30 at IDH2 R140Q and < 6.00 in test [1].
For `C[C@@H](Nc1cc(NC(C)(C)C)nc(-c2cccc(C(F)(F)F)n2)n1)C1CC1` [Compound 417], the pIC50 is < 6.00 against IDH1 R132C, 6.00 to 7.00 in test [1] and 6.00 to 7.00 in test [3].
Regarding `CC(C)CNc1nc(NC(C)(C)C#N)nc(-c2cc(O)ccc2F)n1` [Compound 86], the results for the pIC50 (in test [2]; at IDH1 R132C; in test [1]) were 7.00 to 7.30, < 6.00 and < 6.00, respectively.
Regarding `COc1ccc(F)c(-c2nc(N[C@H](C)C3CC3)nc(N[C@H](C)C3CC3)n2)c1` [Compound 8], the values for the pIC50 at IDH1 R132C and against IDH2 R140Q were < 6.00 and 7.00 to 7.30, respectively. The “IDH1 R132H IC50” value in test [1] is given as “No Fit”.
For the compound `FC(F)(F)c1cccc(-c2nc(NC3CCC3)nc(NC3CCC3)n2)n1` [Compound 9], the values for the pIC50 (against IDH1 R132C; against IDH2 R140Q; in test [1]) were 6.00 to 7.00, > 7.30 and 7.00 to 7.30, respectively.
For `CC(C)(CO)Nc1nc(Nc2ccnc(C(C)(F)F)c2)nc(-c2cccc(C(F)(F)F)n2)n1` [Compound 49], the pIC50 (on IDH1 R132C; in test [1]) was < 6.00 in each case.
As for `CC(C)Nc1nc(NC(C)(C)C#N)nc(-c2cc(O)ccc2F)n1` [Compound 35], the pIC50 (on IDH1 R132C; in test [1]) was < 6.00 throughout.
With `C[C@@H](Nc1nc(NCC(C)(C)O)nc(-c2cccc(C(F)(F)F)n2)n1)C1CC1` (stereo in doubt) [Compound 10, 1-(4-(1-cyclopropylethylamino)-6-(6-(trifluoromethyl)pyridin-2-yl)-1,3,5-triazin-2-ylamino)-2-methylpropan-2-ol], the pIC50 at IDH1 R132C was < 6.00; at IDH2 R140Q, 7.00 to 7.30; in test [1], < 6.00.
Turning to `C[C@@H](Nc1nc(N[C@H](C)C2CC2)nc(-c2cccc(C(F)(F)F)n2)n1)c1ccccc1` [Compound 22], the pIC50 is 6.00 to 7.00 at IDH1 R132C, > 7.30 at IDH2 R140Q and 7.00 to 7.30 in test [1].
On to `C[C@@H](Nc1nc(N[C@H](C)C2CC2)nc(-c2cccc(C(F)(F)F)n2)n1)C(=O)N(C)C` [Compound 48], for which the “IDH1 R132C IC50” value on IDH1 R132C is on record as “No Fit”. Besides, in test [1], the pIC50 is < 6.00.
For the compound `CC(C#N)Nc1nc(N[C@H](C)C2CC2)nc(-c2cccc(C(F)(F)F)n2)n1` (some centres unmarked) [Compound 40], the pIC50 (against IDH1 R132C; in test [1]) was 7.00 to 7.30 in each case.
Take `C[C@@H](Nc1nc(N[C@@H]2C[C@H]2c2ccccc2)nc(-c2cccc(C(F)(F)F)n2)n1)C1CC1` [Compound 23]: the pIC50 (against IDH1 R132C; in test [1]) was 7.00 to 7.30 in each case.
As for `CC(Nc1nc(N[C@H](C)C2CC2)nc(-c2cccc(C(F)(F)F)n2)n1)c1cccc(C(F)(F)F)c1` (some centres unmarked) [Compound 27], the pIC50 was 6.00 to 7.00 against IDH1 R132C and 7.00 to 7.30 in test [1].
Regarding `CC(Nc1nc(N[C@H](C)C2CC2)nc(-c2cccc(C(F)(F)F)n2)n1)c1ccccn1` (stereo partly drawn) [Compound 25, N^2-((R)-1-cyclopropylethyl)-N^4-(1-(pyridin-2-yl)ethyl)-6-(6-(trifluoromethyl)pyridin-2-yl)-1,3,5-triazine-2,4-diamine], the pIC50 (on IDH1 R132C; in test [1]) was < 6.00 throughout.
On to `COCC(C)Nc1nc(N[C@H](C)C2CC2)nc(-c2cccc(C(F)(F)F)n2)n1` (some centres unmarked) [Compound 44], for which the pIC50 against IDH1 R132C is < 6.00; in test [1] it was 6.00 to 7.00.
`C[C@@H](Nc1nc(N[C@H](C)C2CC2)nc(-c2cccc(Cl)n2)n1)C1CC1` [Compound 45]: the values for the pIC50 (on IDH1 R132C; in test [1]) were 7.00 to 7.30 and > 7.30, respectively.
Take `CCN(CC)c1nc(N[C@H](C)C2CC2)nc(-c2cccc(Cl)n2)n1` [Compound 46]: the pIC50 (against IDH1 R132C; in test [1]) was < 6.00 throughout.
For the compound `CC(O)CNc1nc(N[C@H](C)C2CC2)nc(-c2cccc(C(F)(F)F)n2)n1` (stereo partly drawn) [Compound 12, 1-(4-((R)-1-cyclopropylethylamino)-6-(6-(trifluoromethyl)pyridin-2-yl)-1,3,5-triazin-2-ylamino)propan-2-ol], the pIC50 was < 6.00 against IDH1 R132C, 7.00 to 7.30 at IDH2 R140Q and < 6.00 in test [1].
`C[C@H](Nc1nc(N[C@H](C)c2ccccc2)nc(-c2cccc(C(F)(F)F)n2)n1)c1ccccc1` [Compound 26]: the pIC50 is < 6.00 against IDH1 R132C, > 7.30 against IDH2 R140Q and 6.00 to 7.00 in test [1].
`C[C@@H](Nc1nc(NCC(N)=O)nc(-c2cccc(C(F)(F)F)n2)n1)C1CC1` [Compound 5]: the “IDH1 R132C IC50” value on IDH1 R132C was “No Fit”. For the same compound, in test [1], the pIC50 was < 6.00.
With `FC(F)(F)c1cccc(-c2nc(NC3CC4CC4C3)nc(NC3CC4CC4C3)n2)n1` (centres unmarked) [Compound 36], the results for the pIC50 (in test [2]; at IDH1 R132C; in test [1]) were > 7.30, 7.00 to 7.30 and > 7.30, respectively.
As for `C[C@@H](Nc1nc(NC(C)(C)C#N)nc(-c2cccc(C(F)(F)F)n2)n1)C1CC1` [Compound 37], the pIC50 at IDH1 R132C was < 6.00; in test [1], 7.00 to 7.30.
For `C[C@@H](Nc1nc(N[C@H](C)C2CC2)nc(-c2cccc(N3CCC3)n2)n1)C1CC1` [Compound 51], in that order: < 6.00 and < 6.00.
For `FC1(F)CCC(Nc2nc(NC3CCC(F)(F)CC3)nc(-c3cccc(C(F)(F)F)n3)n2)CC1` [Compound 41], the pIC50 was < 6.00 on IDH1 R132C and 7.00 to 7.30 in test [1].
Regarding `FC(F)(F)c1cccc(-c2nc(NCC3CC3)nc(NCC3CC3)n2)n1` [Compound 1], the pIC50 at IDH1 R132C is < 6.00; against IDH2 R140Q, > 7.30; in test [1], < 6.00; in test [4], > 7.30.
For `C[C@@H](Nc1nc(N[C@H](C)C2CC2)nc(-c2ccccc2F)n1)C1CC1` [Compound 6], the pIC50 is 6.00 to 7.00 on IDH1 R132C and < 6.00 in test [1].
